Read-outs that look alike come from different tables or passages of the source. One block for each substance: values may come before it.
How the values were obtained:
GPX4 protein = experiment: Microscale Thermophoresis (MST) ligand binding; conditions: for Fnorm (‰), MST original data: labelled GPX4
Procedure: Initially, GPX4 was labeled using Protein Labeling Kit RED-NHS according to the manufacturer’s instructions to investigate the binding affinity of Gi-F-CAA, Gi-F and NGi-F-CAA with GPX4 protein. Afterward, the labelled GPX4 protein was incubated with series of Gi-F-CAA, Gi-F and NGi-F-CAA concentration gradients. Finally, the prepared samples were loaded into silica capillaries and measured with Monolish NT.115. Apparent Kd represented the affinity of assemblies rather than a single molecule. Bovine serum albumin (BSA) was used as control for calculating the apparent binding affinity between Gi-F (nanoparticle) to GPX4 protein. Briefly, as the diameter of nanoparticle is proportional to the molecular weight, according to the reported bovine serum albumin (BSA) protein size and molecular weight (7.2 nm, 66.43 KDa), the molecular weight of Gi-F nanoparticle with an average 78 nm size can be calculated to be […]. The monomer amount Gi-F nanoparticle was calculated as […].

[1] = Critical aggregation concentration (pyrene probe, I338/I335); assay type: physicochemical; conditions: for I338/I335 (pyrene): pyrene 6 μM, emission 393 nm
Procedure: The CACs were determined using pyrene as a fluorescent probe. In brief, 50 μL of pyrene solution in acetone (480 μM) was added to a 5 mL centrifuge tube, followed by adding a series of peptide-porphyrin conjugate solutions with different concentrations, and the tube was kept overnight to evaporate the acetone completely, the concentration of pyrene being fixed at 6 μM at last. The excitation spectra of the solutions were recorded with the emission wavelength fixing at 393 nm, and the intensity ratio (I338/I335) was calculated as a function of the concentration. The CAC was determined based on the intersection point at low concentration on the plot.

Particle size by DLS = assay type: physicochemical; conditions: 40 μM, PBS 0.01 M, pH 6.5, with GPX4; Supplementary Fig. 18
Procedure: Nano-ZS 3600 (Malvern Instruments, UK) was used to measure the size distribution of the peptide-porphyrin conjugate solutions. The conjugate solutions (40 μM) were incubated at pH 7.4 or pH 6.5 before measurements. An average value was determined by three repeated measurements at 25 °C for each sample. Besides, transmission electron microscopy (TEM, Tecnai G2 20 S-TWIN) was conducted to observe the morphology and diameters of conjugates in aqueous solution, The conjugates (50 μL, 40 μM) were kept in PB solution at pH 7.4 or pH 6.5, which were dropped on copper meshes. After 5 min, unnecessary liquid was removed and the uranyl acetate solution (10 μL) was dropped on this copper mesh to stain the samples for 10 min. Finally, the copper meshes were washed with deionized water, and dried at room temperature for observation.

HUVEC cells = assay type: cell-based; conditions: for Cell viability of HUVEC: HUVEC cells, pH=7.4
Procedure: Supplementary Fig. 27. Viability of HUVEC cells after treated with Gi -F (pH=7.4) and Gi-F-CAA (pH=7.4) at different
concentrations for 48 h (n=3 experimental repeats). Experiment was independently repeated three times with
(1 picture or pasted object on this page, not shown here)

[2] = Hydrolysis of the peptide-porphyrin conjugates at pH 7.4 and 6.5 (dialysis, HPLC); assay type: physicochemical; conditions: for Hydrolysis of SA (%): mean
Procedure: In vitro hydrolysis analysis of the peptide-porphyrin conjugates was studied in pH values of 7.4 and 6.5 solutions. 20 mg of peptide-porphyrin conjugate was dissolved in 2 mL pH 7.4 buffer solution, which was then transferred into a dialysis bag (MWCO: 1000 Da) and immersed in 25 mL of different pH buffer solutions at 37 °C with continuous shaking respectively. At fixed time intervals (20 min, 40 min, 1 h, 2 h and 4 h), […] chromatography (HPLC, WATERS Alliance HPLC e2489), and an equal volume of fresh buffer solution was replaced to the system. In order to determine the CAA concentration according to the peak area of the CAA, a standard curve of the CAA was plotted, with the peak area as a function of the concentration. […]

EJ cells = experiment: Intracellular Fe2+ ions detection; assay type: cell-based
Procedure: Initially, EJ cells (5 × 10^5) were cultured in confocal dish with a CO2 incubator overnight at 37 °C. […] Afterwards, EJ cells were washed with PBS for 3 times and replaced with culture mediums.

Fnorm (‰), MST original data (GPX4 protein; nanoparticle ligand concentration 3.07265e-11 (μM)): 857.598 ‰
Fnorm (‰), MST original data (GPX4 protein; nanoparticle ligand concentration 6.14531e-11 (μM)): 848.131 ‰
Fnorm (‰), MST original data (GPX4 protein; nanoparticle ligand concentration 1.22906e-10 (μM)): 859.494 ‰
Fnorm (‰), MST original data (GPX4 protein; nanoparticle ligand concentration 2.45812e-10 (μM)): 850.692 ‰
Fnorm (‰), MST original data (GPX4 protein; nanoparticle ligand concentration 4.91623e-10 (μM)): 861.283 ‰
Fnorm (‰), MST original data (GPX4 protein; nanoparticle ligand concentration 9.8325e-10 (μM)): 853.275 ‰
Fnorm (‰), MST original data (GPX4 protein; nanoparticle ligand concentration 1.9665e-9 (μM)): 865.165 ‰
Fnorm (‰), MST original data (GPX4 protein; nanoparticle ligand concentration 3.933e-9 (μM)): 860.627 ‰
Fnorm (‰), MST original data (GPX4 protein; nanoparticle ligand concentration 7.86601e-9 (μM)): 880.817 ‰
Fnorm (‰), MST original data (GPX4 protein; nanoparticle ligand concentration 1.5732e-8 (μM)): 885.875 ‰
Fnorm (‰), MST original data (GPX4 protein; nanoparticle ligand concentration 3.1464e-8 (μM)): 915.502 ‰
Fnorm (‰), MST original data (GPX4 protein; nanoparticle ligand concentration 6.29279e-8 (μM)): 920.264 ‰
Fnorm (‰), MST original data (GPX4 protein; nanoparticle ligand concentration 1.25856e-7 (μM)): 943.293 ‰
Fnorm (‰), MST original data (GPX4 protein; nanoparticle ligand concentration 2.51712e-7 (μM)): 935.723 ‰
Fnorm (‰), MST original data (GPX4 protein; nanoparticle ligand concentration 5.03423e-7 (μM)): 956.979 ‰
Fnorm (‰), MST original data (GPX4 protein; nanoparticle ligand concentration 1.00685e-6 (μM)): 946.244 ‰
increase of binding affinity to GPX4 versus Gi-F-CAA (GPX4 protein; ratio of MST Kd values): ~ 55 times
Substance: FeTCPP-LKLKLKGACNWLPLYPCPV (disulfide) [Gi-F]
I338/I335 (pyrene) ([1]; conjugate 0.97656 μM): 0.9792
I338/I335 (pyrene) ([1]; conjugate 1.95313 μM): 0.979
I338/I335 (pyrene) ([1]; conjugate 3.90625 μM): 0.9785
I338/I335 (pyrene) ([1]; conjugate 7.8125 μM): 0.9903
I338/I335 (pyrene) ([1]; conjugate 15.625 μM): 1.011
I338/I335 (pyrene) ([1]; conjugate 31.25 μM): 1.031
I338/I335 (pyrene) ([1]; conjugate 62.5 μM): 1.099
I338/I335 (pyrene) ([1]; conjugate 125 μM): 1.141
I338/I335 (pyrene) ([1]; conjugate 250 μM): 1.203
I338/I335 (pyrene) ([1]; conjugate 500 μM): 1.248
I338/I335 (pyrene) ([1]; conjugate 1000 μM): 1.254
critical aggregation concentration (CAC) ([1]; pyrene probe, I338/I335, PBS 0.01 M, pH 7.4): 13.8 µM
particle size (DLS) after incubation with GPX4 (Particle size by DLS): ~ 90 ± 9 nm
Cell viability of HUVEC (HUVEC cells; log concentration (μM) 0, replicate 1): 101.3%
Cell viability of HUVEC (HUVEC cells; log concentration (μM) 0, replicate 2): 99.35%
Cell viability of HUVEC (HUVEC cells; log concentration (μM) 0, replicate 3): 85.17%
Cell viability of HUVEC (HUVEC cells; log concentration (μM) 0.30103, replicate 1): 83.14%
Cell viability of HUVEC (HUVEC cells; log concentration (μM) 0.30103, replicate 2): 92.08%
Cell viability of HUVEC (HUVEC cells; log concentration (μM) 0.30103, replicate 3): 87.75%
Cell viability of HUVEC (HUVEC cells; log concentration (μM) 0.60206, replicate 1): 84.4%
Cell viability of HUVEC (HUVEC cells; log concentration (μM) 0.60206, replicate 2): 84.96%
Cell viability of HUVEC (HUVEC cells; log concentration (μM) 0.60206, replicate 3): 81.47%
Cell viability of HUVEC (HUVEC cells; log concentration (μM) 0.90309, replicate 1): 84.05%
Cell viability of HUVEC (HUVEC cells; log concentration (μM) 0.90309, replicate 2): 81.61%
Cell viability of HUVEC (HUVEC cells; log concentration (μM) 0.90309, replicate 3): 70.99%
Cell viability of HUVEC (HUVEC cells; log concentration (μM) 1.20412, replicate 1): 70.71%
Cell viability of HUVEC (HUVEC cells; log concentration (μM) 1.20412, replicate 2): 64.63%
Cell viability of HUVEC (HUVEC cells; log concentration (μM) 1.20412, replicate 3): 61.91%
Cell viability of HUVEC (HUVEC cells; log concentration (μM) 1.50515, replicate 1): 57.51%
Cell viability of HUVEC (HUVEC cells; log concentration (μM) 1.50515, replicate 2): 49.41%
Cell viability of HUVEC (HUVEC cells; log concentration (μM) 1.50515, replicate 3): 55.06%
Cell viability of HUVEC (HUVEC cells; log concentration (μM) 1.80618, replicate 1): 45.98%
Cell viability of HUVEC (HUVEC cells; log concentration (μM) 1.80618, replicate 2): 47.94%
Cell viability of HUVEC (HUVEC cells; log concentration (μM) 1.80618, replicate 3): 46.54%
Cell viability of HUVEC (HUVEC cells; log concentration (μM) 2.10721, replicate 1): 37.74%
Cell viability of HUVEC (HUVEC cells; log concentration (μM) 2.10721, replicate 2): 31.25%
Cell viability of HUVEC (HUVEC cells; log concentration (μM) 2.10721, replicate 3): 33.97%
Cell viability of HUVEC (HUVEC cells; log concentration (μM) 2.40824, replicate 1): 21.61%
Cell viability of HUVEC (HUVEC cells; log concentration (μM) 2.40824, replicate 2): 25.66%
Cell viability of HUVEC (HUVEC cells; log concentration (μM) 2.40824, replicate 3): 20.7%
cytotoxicity toward normal cells compared with Gi-F-CAA (HUVEC cells; pH 7.4): obvious increased cytotoxicity

Substance: FeTCPP-LKLKLK(SA)GACNWLPLYPCPV (disulfide) [Gi-F-SA, control conjugate decorated with non-sensitive succinic anhydride (SA) moieties]
Hydrolysis of SA (%) ([2]; pH 6.5, 0 min): 0%
Hydrolysis of SA (%) ([2]; pH 6.5, 20 min): 1.1%
Hydrolysis of SA (%) ([2]; pH 6.5, 40 min): 1.9%
Hydrolysis of SA (%) ([2]; pH 6.5, 60 min): 2.1%
Hydrolysis of SA (%) ([2]; pH 6.5, 120 min): 2.1%
Hydrolysis of SA (%) ([2]; pH 6.5, 240 min): 2.3%
hydrolysis at pH 6.5 and 7.4 ([2]; pH 6.5 and 7.4, HPLC, Supplementary Fig. 11): little hydrolysis
Hydrolysis of SA (%) ([2]; pH 7.4, 0 min): 0%
Hydrolysis of SA (%) ([2]; pH 7.4, 20 min): 1%
Hydrolysis of SA (%) ([2]; pH 7.4, 40 min): 1.2%
Hydrolysis of SA (%) ([2]; pH 7.4, 60 min): 1.6%
Hydrolysis of SA (%) ([2]; pH 7.4, 120 min): 1.9%
Hydrolysis of SA (%) ([2]; pH 7.4, 240 min): 2.4%
intracellular Fe^2+ (FerroOrange fluorescence), pH 7.4 (EJ cells; EJ cells, pH 7.4, 8 h): no remarkable fluorescence
Concentrations of Fe2+ ions (EJ cells; pH=7.4, replicate #1): 13.222 ng/104cells
Concentrations of Fe2+ ions (EJ cells; pH=7.4, replicate #2): 11.221 ng/104cells
Concentrations of Fe2+ ions (EJ cells; pH=7.4, replicate #3): 12.7 ng/104cells

Reference: paper PMC10784468 (Nature Communications, 2024)
